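Exposure lasted 48 hours, with cells grown in 96-well plates and compounds tested at five concentrations. GI50: concentration for 50% inhibition of growth.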 Calls of active or inactive are those of the source. Cut-off read from the data, not from the text of the source: active = GI50 up to about 1.1 µM and inactive = higher.
Legend:
Test in all cases: DTP human tumour cell line panel, 48 h
RXF 631 = system: RXF 631
DMS-273 = system: DMS-273
DMS-114 = system: DMS-114
LXFL 529 = system: LXFL 529
KM-20L2 = system: KM-20L2
DLD-1 = system: DLD-1
SNB-78 = system: SNB-78
HOP-18 = system: HOP-18
XF498 = system: XF498

Measured: GI50

COc1cc(Br)c(C2OCCCO2)cc1OCc1ccccc1
inactive: RXF 631 > 100 µM | DMS-273 37.6 µM | DMS-114 47.1 µM | LXFL 529 48.2 µM | KM-20L2 > 100 µM | DLD-1 39.8 µM | SNB-78 61.4 µM

COc1ccc(C2=C(Cl)c3cc(OC)c(OC)cc3C2Cl)cc1OC (stereo unspecified)
inactive: RXF 631 19.1 µM | DMS-273 14.3 µM | HOP-18 21.7 µM | KM-20L2 15.6 µM | DLD-1 15.3 µM | SNB-78 20.7 µM | XF498 16 µM

C=C(c1ccccc1)[C@@]1(O)CC[C@@H]1N(CC#N)Cc1ccccc1
inactive: DMS-273 20.5 µM | DMS-114 17 µM | LXFL 529 15.9 µM | HOP-18 14.6 µM | KM-20L2 63.1 µM | DLD-1 19.6 µM | SNB-78 31.2 µM

CNC(=O)N(CCCCC(NC(C)=O)C(=O)NCc1ccccc1)Cc1ccccc1 (stereo unspecified)
inactive: RXF 631 > 100 µM | DMS-273 > 100 µM | DMS-114 > 100 µM | LXFL 529 > 100 µM | KM-20L2 > 100 µM | DLD-1 > 100 µM | SNB-78 > 100 µM | XF498 > 100 µM

CC(=O)N1c2ccccc2C2=CC3C4C(=O)N(c5ccccc5)C(=O)C4C21C1C(=O)N(c2ccccc2)C(=O)C31 (stereo unspecified)
inactive: DMS-114 4.27 µM | LXFL 529 81.3 µM | HOP-18 34.4 µM | KM-20L2 30.3 µM | DLD-1 23.4 µM | SNB-78 84.5 µM | XF498 10.9 µM

CC1=CC(=O)c2cccc(O)c2C1=O
inactive: DMS-273 2.42 µM | DMS-114 2.74 µM | LXFL 529 1.67 µM | HOP-18 1.7 µM | KM-20L2 20.5 µM | DLD-1 1.66 µM | SNB-78 > 32.1 µM | XF498 1.79 µM

O=C1N/C(=C\[N+](=O)[O-])c2ccccc21
inactive: RXF 631 > 100 µM | DMS-273 > 100 µM | DMS-114 > 100 µM | LXFL 529 > 100 µM | HOP-18 > 100 µM | KM-20L2 > 100 µM | DLD-1 > 100 µM | SNB-78 > 100 µM

COc1ccc(/C=C/C(=O)c2sc(NC(=S)NC(=O)c3ccc(Cl)cc3)nc2C)cc1OC
inactive: RXF 631 48.6 µM | DMS-114 41.6 µM | LXFL 529 32.2 µM | HOP-18 5.89 µM | KM-20L2 > 100 µM | DLD-1 49.4 µM | SNB-78 54.3 µM | XF498 34.8 µM

NC(=S)N/N=C1/C(=O)N(c2ccccc2)C(=O)C1C(=O)Nc1ccccc1 (stereo unspecified)
inactive: RXF 631 > 100 µM | DMS-273 > 100 µM | DMS-114 > 100 µM | LXFL 529 > 100 µM | HOP-18 > 100 µM | KM-20L2 > 100 µM | SNB-78 > 100 µM | XF498 > 100 µM

COc1ccc(C(C#N)NNc2nc(C)cc(O)n2)cc1OC (stereo unspecified)
inactive: DMS-273 > 100 µM | DMS-114 > 100 µM | LXFL 529 > 100 µM | HOP-18 > 100 µM | KM-20L2 > 100 µM | DLD-1 > 100 µM | SNB-78 > 100 µM

O=C1O[C@@H](c2ccccc2)C[C@@H]1CN1CCOCC1
inactive: RXF 631 > 100 µM | DMS-114 > 100 µM | LXFL 529 > 100 µM | KM-20L2 > 100 µM | DLD-1 > 100 µM | SNB-78 > 100 µM | XF498 > 100 µM

COc1cc(CNc2nc3ccc(C(F)(F)F)cc3nc2-c2ccccc2)cc(OC)c1OC
inactive: RXF 631 > 100 µM | DMS-273 39 µM | LXFL 529 24.8 µM | KM-20L2 > 100 µM | DLD-1 48.6 µM | SNB-78 14.5 µM | XF498 56.1 µM

CC1CSC(=S)N1C(=O)N1C(=S)SCC1C (stereo unspecified)
inactive: DMS-273 20.1 µM | DMS-114 38.3 µM | LXFL 529 33.4 µM | HOP-18 53.6 µM | KM-20L2 38.7 µM | DLD-1 19.3 µM | SNB-78 43.2 µM

CN1CC(=O)N2Cc3ccccc3-n3cccc3C2C1 (stereo unspecified)
inactive: RXF 631 > 100 µM | DMS-273 > 100 µM | LXFL 529 > 100 µM | HOP-18 4.92 µM | KM-20L2 > 100 µM | DLD-1 > 100 µM | SNB-78 > 100 µM | XF498 > 100 µM

COc1cc([C@@H]2c3cc4c(cc3[C@@H](OC3OC5CO[C@@H](c6cccs6)OC5C(O)C3O)[C@H]3COC(=O)[C@H]23)OCO4)cc(OC)c1O (stereo partly specified)
active: DMS-273 0.084 µM | SNB-78 1.08 µM | XF498 0.31 µM
inactive: HOP-18 1.57 µM | KM-20L2 2.12 µM | DLD-1 2.18 µM

CC(=O)O[C@H]1CCC2[C@@H]3CCC4Nc5c(cnn5-c5ccccc5)C[C@]4(C)C3CC[C@@]21C (stereo partly specified)
inactive: RXF 631 14.9 µM | DMS-273 3.18 µM | DMS-114 11.7 µM | LXFL 529 12.6 µM | HOP-18 31.8 µM | KM-20L2 8 µM | DLD-1 32.7 µM | SNB-78 14.4 µM | XF498 6.52 µM

CCCN(CCCCC(NC(C)=O)C(=O)NCc1ccccc1)C(=O)NCCCl (stereo unspecified)
inactive: RXF 631 > 100 µM | DMS-273 > 100 µM | DMS-114 > 100 µM | LXFL 529 > 100 µM | HOP-18 > 100 µM | KM-20L2 > 100 µM | DLD-1 > 100 µM | XF498 > 100 µM

CC1CCC2(C)C(CC=C(C=O)C2(O)C=O)C12CO2 (stereo unspecified)
inactive: RXF 631 1.99 µM | DMS-273 1.79 µM | DMS-114 1.57 µM | LXFL 529 1.54 µM | KM-20L2 2.49 µM | SNB-78 2.07 µM | XF498 2.17 µM

COc1cc2cc3c4c(cc(OC)c(OC)c4c2cc1OC)CCN3C(=O)CCC(=O)NCCCN(C)C
inactive: DMS-273 73.1 µM | DMS-114 27.8 µM | LXFL 529 61 µM | HOP-18 > 100 µM | KM-20L2 24.4 µM | DLD-1 16.9 µM | SNB-78 > 100 µM | XF498 24.9 µM

COc1ccc2c(c1)C(CCN)C(=O)N2 (stereo unspecified)
inactive: RXF 631 > 100 µM | DMS-273 > 100 µM | DMS-114 > 100 µM | LXFL 529 > 100 µM | HOP-18 > 100 µM | KM-20L2 > 100 µM | DLD-1 > 100 µM | SNB-78 > 100 µM | XF498 > 100 µM

O=S(=O)(/C=C/CS(=O)(=O)c1ccccc1)c1ccccc1
inactive: RXF 631 24.7 µM | DMS-273 29.8 µM | DMS-114 23.4 µM | LXFL 529 29.1 µM | HOP-18 > 100 µM | KM-20L2 29.2 µM | DLD-1 23.6 µM | SNB-78 26.7 µM | XF498 20.7 µM

C1CSCCSCCCS[C@@H]2CCCCC2SC1 (stereo partly specified)
inactive: DMS-273 > 100 µM | DMS-114 28.2 µM | LXFL 529 > 100 µM | HOP-18 > 100 µM | KM-20L2 > 100 µM | DLD-1 > 100 µM | SNB-78 > 100 µM

NC(=O)CN(CC(N)=O)C(N)=O
inactive: DMS-273 > 100 µM | DMS-114 > 100 µM | LXFL 529 > 100 µM | HOP-18 > 100 µM | KM-20L2 > 100 µM | SNB-78 > 100 µM | XF498 > 100 µM

O=C1c2ccncc2C(=O)c2c(O)ccc(O)c21
inactive: DMS-114 3.01 µM | LXFL 529 10.3 µM | HOP-18 12.9 µM | KM-20L2 2.88 µM | XF498 4.16 µM

COc1cc(CNC2c3cc4c(cc3C(c3cc(OC)c(OC)c(OC)c3)[C@H]3C(=O)OCC23)OCO4)cc(OC)c1OC (stereo partly specified)
active: DMS-273 0.237 µM | DMS-114 0.197 µM | LXFL 529 0.356 µM | KM-20L2 0.197 µM | DLD-1 0.41 µM | XF498 0.364 µM
inactive: HOP-18 55.5 µM

— ChEMBL document CHEMBL1201862, “PubChem BioAssay data set” (2004)
